{
  "source": "patent US8946158B2",
  "about": "“Treatments of gastrointestinal disorders” (Ironwood Pharmaceuticals, Inc., priority 2009, dated 2015)",
  "key": {"[1]": {"assay": "In vitro metabolism in mouse jejunum loop fluid", "type": "in vitro ADME", "settings": "for Rate of degradation relative to peptide 2: mouse intestinal fluid", "method": "The purpose of this study was to determine the stability of phosphorylated peptides in mouse jejunal loop fluid. […] The isotopically labeled peptide 2 was synthesized with ^13C, ^15N-labeled alanine and leucine (i.e., with a sequence CCpS[^13C6,^15N]LCCNP[^13C6,^15N]ACTGC (SEQ ID NO:16)).\nEach peptide was synthesized by American Peptide Company, Inc., and was stored desiccated at −20° C. A 1 mg/mL solution for each of the non-labeled peptides was prepared in 1 M tris(hydroxymethyl)aminomethane hydrochloride (Tris-HCl), pH 8 just prior to conducting the mouse intestinal loop fluid assay. A 500 ng/mL solution of ^13C, ^15N-labeled peptide 2 was prepared in 0.1% formic acid in water and was utilized to dilute the jejunum samples for post-assay LC-MS/MS analysis.\nTo collect the fluid, mice were fasted overnight with full access to water. They were then anesthetized with isofluorane for surgery and subjected to laparotomy in which the small intestine was exteriorized. Jejunum loops of 3 to 4 cm in length were made with sutures starting at 7 cm from the pyloric sphincter of the stomach. Once the loops were formed, they were injected with 200 μL of phosphate buffered saline (PBS) buffer (10 mM, pH 7.4). The abdominal wall and skin of the animals were then sutured, and the animals were allowed to recover for 30 minutes. Following recovery, the animals were sacrificed, the loops were then excised and the fluid inside was recovered and stored at −80° C. until use.\nFor each peptide, 25 μL of the 1 mg/mL peptide stock solution was added to 25 μL of 1 M Tris-HCl and 25 μL of 10× calf intestinal phosphatase (CIP) buffer containing 500 mM Tris-HCl, 1 M sodium chloride (NaCl), 0.1 mM magnesium chloride (MgCl2), pH 8. The reactions were initiated by adding 175 μL of the mouse jejunum loop fluid or 175 μL of the 1 M Tris-HCl pH8 buffer for the control reactions. The final concentration of each peptide was 100 μg/mL. The reactions were continuously mixed and maintained at 37° C. on a plate shaker. At 0, 2, 5, 10, 20, 30, 60, 90 and 120 minutes after adding the mouse intestinal loop fluid, a 25 μL aliquot was taken and added to 25 μL of 4° C. 12% trichloroacetic acid to stop the reaction. An additional 200 μL of 0.1% formic acid in water was added to these reactions for dilution purposes. These samples were then further diluted by taking 20 μL of each sample and adding it to 480 μL of 0.1% formic acid in water containing 500 ng/mL of the internal standard 13C, 15N-labeled peptide 2.\nAll samples were analyzed using an Applied Biosystems/MDS SCIEX API 4000 triple quadrupole mass spectrometer equipped with a high-performance liquid chromatography (HPLC) system. The mass spectrometer was operated in multiple reaction monitoring (MRM) mode, with resolution set to 1.2 Da. […]"}, "[2]": {"molecular_target": "T1, Calf intestinal alkaline phosphatase (CIP) (Bos taurus, UniProt P19111)", "T1 construct": "purchased New England BioLabs M0290S", "T1 sequence (P19111 20-506)": "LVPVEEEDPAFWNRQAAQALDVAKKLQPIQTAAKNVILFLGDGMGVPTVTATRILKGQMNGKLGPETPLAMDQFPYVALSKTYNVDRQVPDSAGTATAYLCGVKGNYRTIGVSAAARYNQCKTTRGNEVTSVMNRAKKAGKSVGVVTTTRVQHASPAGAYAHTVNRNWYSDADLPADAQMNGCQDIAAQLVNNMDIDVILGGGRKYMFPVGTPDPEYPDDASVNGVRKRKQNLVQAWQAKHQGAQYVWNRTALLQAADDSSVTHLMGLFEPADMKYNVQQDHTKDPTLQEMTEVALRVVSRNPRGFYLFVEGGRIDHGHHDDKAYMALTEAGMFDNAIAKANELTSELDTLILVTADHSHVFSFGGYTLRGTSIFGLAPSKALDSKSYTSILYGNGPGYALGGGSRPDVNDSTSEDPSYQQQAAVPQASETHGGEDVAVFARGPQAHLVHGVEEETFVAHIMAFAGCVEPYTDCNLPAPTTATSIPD", "assay": "Alkaline phosphatase reaction (dephosphorylation of peptide substrates, LC-MS)", "type": "in vitro ADME", "settings": "with and without calf intestinal alkaline phosphatase; data not shown", "method": "For the alkaline phosphatase reactions, peptide stocks were prepared at 1 mg/mL in 0.1 M Tris-HCl pH 8, which were stored at −20° C. until assays were conducted. For the acid phosphatase reactions, peptide stocks were prepared at 1 mg/mL in 50 mM sodium phosphate pH 6, which was stored at −20° C. until assays were conducted.\nCalf intestinal alkaline phosphatase (CIP) was obtained from New England BioLabs, Ipswich, Mass. Cat #M0290S. The CIP reaction solution was prepared by dilution with buffer (50 mM KCl, 10 mM Tris-HCl pH 8, 1 mM MgCl2, 50% glycerol) to 0.5 units/μL. The alkaline phosphatase reaction solutions were assembled in 20 μL quantities containing: • 2 μL 10× CIP buffer (1M NaCl, 500 mM Tris-HCl pH 8, 100 mM MgCl2) • 2 μL peptide stock (1 mg/mL) • 12 μL H2O • 4 μL alkaline phosphatase (0, 0.5 or 2 units)\nThe reaction solutions were mixed gently and incubated for 90 minutes at 37° C. These reaction solutions were stored at −20° C. until analysis. For analysis, the reaction solutions were diluted from […] of CIP treated peptide to 50 μL with 0.1% formic acid in water to a final concentration of 10 μM.\nControl reactions were assembled for enzyme activity containing 10 mM p-nitrophenylphosphate in place of peptide. After incubation, the reactions were diluted with 0.1 mL of 100 mM borate buffer pH 9 and read at the absorbance of 405 nm to monitor p-nitrophenol appearance."}, "[3]": {"tested_on": "ligated rat duodenal loops", "assay": "Fluid secretion in rat intestinal loops", "type": "in vivo", "settings": "2.5 μg of peptide per loop", "method": "The effect of GC-C agonist peptides on secretion were studied by injecting GC-C agonist peptides described herein directly into an isolated loop in wild-type rats.\nLoops were isolated by surgically ligating three loops in the small intestine of the rat. The methodology for ligated loop formation was similar to that described in (London et al., 1997, Am J Physiol, p. G93-105). The loops were roughly centered and at lengths of 1-3 cm. The loops were injected with 200 μl of either peptide/GC-C agonist (0.1-5 μg) or vehicle (20 mM Tris, pH 7.5 or Krebs Ringer, 10 mM Glucose, HEPES buffer (KRGH)). Following a recovery time of up to 90 minutes the loops were excised. Weights were recorded for each loop before and after removal of the fluid contained therein. The length of each loop was also recorded. A weight to length ratio (W/L) for each loop was calculated to determine the effects of the GC-C agonist peptide described herein on secretion. Loop fluid volume was also determined.\nData showing increases in fluid secretion, pH increase and bicarbonate secretion in ligated duodenal loops in rats are shown in FIG. 2 and Table 8. […] Table 8 provides the results in ligated rat duodenal loops using 2.5 μg of peptide per loop."}, "upper GI transit in mice": {"tested_on": "upper GI transit in mice", "assay": "Gastrointestinal transit in mice (charcoal meal)", "type": "in vivo", "settings": "female CD-1 mice; oral gavage; distance travelled by charcoal front, % of small intestine", "method": "The purpose of the assay was to test the effect of the guanylate cyclase C agonist peptides on in vivo gastrointestinal transit in mice.\nFor the assay, female CD-1 mice (n=10 per group) weighing 25-30 g were fasted overnight and given access to water ad libitum. Activated charcoal (20 g; 100 mesh; Sigma cat #242276) was suspended in 200 mL gum arabic (100 mg/mL), and stirred for at least one hour. Test peptides were prepared in a 20 mM Tris pH 6.9 vehicle.\nTest peptide and vehicle were administered in 200 μL doses by oral gavage. Seven minutes after dosing the test peptides, 200 μL of the charcoal/gum arabic suspension was dosed by oral gavage. […] The total length of the small intestine was measured from the pyloric junction to the ileocaecal junction. The distance travelled by the charcoal was measured from the pyloric junction to the charcoal front. The Distance Travelled (%) was determined as (distance travelled by charcoal/total length of the small intestine)×100. Data were entered into the GraphPad Prism software program and analyzed by ANOVA using a Bonferroni multiple comparison test post-hoc. Plots of data and ED50 were also determined using the GraphPad Prism software package.\nThe dose-dependent effects of acute doses of Peptide 4, Peptide 1, Peptide 2, the dephosphorylated form of Peptide 1 and the dephosphorylated form of Peptide 2 on GI transit were determined in female CD mice. […]"}},
  "note": "Positions of bridges follow the written chain, without caps; N, C: chain ends. Non-standard residues stand in square brackets, D forms with d. Residues, ends and D or L forms follow the SMILES beside them. pS = N[C@@H](COP(=O)(O)O)C(=O)O",
  "data": [
    {"molecule": "CC(C)C[C@@H]1NC(=O)[C@H](CO)NC(=O)[C@@H]2CSSC[C@@H]3NC(=O)[C@H](C)NC(=O)[C@@H]4CCCN4C(=O)[C@H](CC(N)=O)NC(=O)[C@H](CSSC[C@H](N)C(=O)N2)NC(=O)[C@H](CSSC[C@@H](C(=O)O)NC(=O)CNC(=O)[C@H]([C@@H](C)O)NC3=O)NC1=O", "note": "[Dephospho-Peptide 2, CCSLCCNPACTGC] (H-CCSLCCNPACTGC-OH; disulfide 1-6, 2-10, 5-13 (inferred); N-terminus and C-terminus assumed)", "values": [
      {"measurement": "Rate of degradation relative to peptide 2", "setting": "[1]", "value": "degraded faster in mouse intestinal fluid than peptide 2"}
    ]},
    {"molecule": "CC(C)C[C@@H]1NC(=O)[C@H](COP(=O)(O)O)NC(=O)[C@@H]2CSSC[C@@H]3NC(=O)[C@H](C)NC(=O)[C@@H]4CCCN4C(=O)[C@H](CC(N)=O)NC(=O)[C@H](CSSC[C@H](N)C(=O)N2)NC(=O)[C@H](CSSC[C@@H](C(=O)O)NC(=O)CNC(=O)[C@H]([C@@H](C)O)NC3=O)NC1=O", "note": "[Peptide 2, CCpSLCCNPACTGC] (H-CC[pS]LCCNPACTGC-OH; disulfide 1-6, 2-10, 5-13 (inferred); N-terminus and C-terminus assumed)", "values": [
      {"measurement": "Metabolite formation", "setting": "[1]; mouse jejunum loop fluid at 37° C.", "value": "Formation of dephospho-peptide 2 was observed"}
    ]},
    {"molecule": "CC(C)C[C@@H]1NC(=O)[C@H](CCC(=O)O)NC(=O)[C@@H]2CSSC[C@@H]3NC(=O)[C@H](C)NC(=O)[C@@H]4CCCN4C(=O)[C@H](CC(N)=O)NC(=O)[C@H](CSSC[C@H](N)C(=O)N2)NC(=O)[C@H](CSSC[C@@H](C(=O)N[C@@H](Cc2ccc(O)cc2)C(=O)O)NC(=O)CNC(=O)[C@H]([C@@H](C)O)NC3=O)NC1=O", "note": "[Peptide 3, CCELCCNPACTGCY] (H-CCELCCNPACTGCY-OH; disulfide 1-6, 2-10, 5-13 (inferred); N-terminus and C-terminus assumed)", "values": [
      {"measurement": "Rate of degradation relative to peptide 2", "setting": "[1]", "value": "degraded faster in mouse intestinal fluid than peptide 2"},
      {"measurement": "Peptide remaining (detection)", "setting": "[1]; mouse jejunum fluid, after 90 minutes, 37° C.", "value": "not detected"},
      {"measurement": "Effect of CIP treatment on peptide (LC-MS)", "setting": "[2]", "value": "not affected"}
    ]},
    {"molecule": "CCEFCCNPACTGCY (Synthetically generated peptide (Peptide 4))", "values": [
      {"measurement": "Rate of HCO3− accumulation", "setting": "[3]", "value": 0.00008, "unit": "Meq/min/cm"},
      {"measurement": "Rate of fluid accumulation", "setting": "[3]", "value": 2.0, "unit": "µL/min/cm"},
      {"measurement": "pH", "setting": "[3]", "value": 8.2},
      {"measurement": "ED50, acceleration of upper GI transit in mice", "setting": "upper GI transit in mice", "value": 2.06, "unit": "µg/kg"}
    ]}
  ]
}
